Source: patent publication US11413278B2, “Compounds and methods for promoting stress resistance” (priority 2015, dated 2022)
Like-named read-outs stand apart in the source and are kept apart here.

How the values were obtained:
[1] = tested on: WI-38 cells; test: CdCl2 (cadmium) resistance assay; type: cell-based, human; conditions: for fold induction at 10 µM: Homo sapiens, 12 h, normalized ATP measurement; for Assay 4: H2O2- & Cd-resistant / Assay 2: Cadmium-resistant: YES/NO; for Assay 2: Cadmium-resistant: * indicates partial
Procedure, shortened: (§1)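 WI-38 cells were given compounds at five final concentrations (0.25–20 μM) in triplicate, followed by cadmium or MMS for 12 h. For MMS, medium was switched from OptiMEM+10% FBS to serum-free DMEM+2% BSA when compounds were added, 24 h before stressor. Two independent assays were run, analysed by global variance t-test.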

[2] = molecular target: T1, human PARP1 (Homo sapiens, UniProt P09874); test: PARP inhibitor assay (HT Fluorescent Homogeneous PARP Inhibition Assay Kit); type: biochemical; conditions: for L = PARP inhibition: score; for Inhibition of PARP1: 10 μM, in vitro
T1 construct: purchased Trevigen
T1 sequence (P09874 whole entry): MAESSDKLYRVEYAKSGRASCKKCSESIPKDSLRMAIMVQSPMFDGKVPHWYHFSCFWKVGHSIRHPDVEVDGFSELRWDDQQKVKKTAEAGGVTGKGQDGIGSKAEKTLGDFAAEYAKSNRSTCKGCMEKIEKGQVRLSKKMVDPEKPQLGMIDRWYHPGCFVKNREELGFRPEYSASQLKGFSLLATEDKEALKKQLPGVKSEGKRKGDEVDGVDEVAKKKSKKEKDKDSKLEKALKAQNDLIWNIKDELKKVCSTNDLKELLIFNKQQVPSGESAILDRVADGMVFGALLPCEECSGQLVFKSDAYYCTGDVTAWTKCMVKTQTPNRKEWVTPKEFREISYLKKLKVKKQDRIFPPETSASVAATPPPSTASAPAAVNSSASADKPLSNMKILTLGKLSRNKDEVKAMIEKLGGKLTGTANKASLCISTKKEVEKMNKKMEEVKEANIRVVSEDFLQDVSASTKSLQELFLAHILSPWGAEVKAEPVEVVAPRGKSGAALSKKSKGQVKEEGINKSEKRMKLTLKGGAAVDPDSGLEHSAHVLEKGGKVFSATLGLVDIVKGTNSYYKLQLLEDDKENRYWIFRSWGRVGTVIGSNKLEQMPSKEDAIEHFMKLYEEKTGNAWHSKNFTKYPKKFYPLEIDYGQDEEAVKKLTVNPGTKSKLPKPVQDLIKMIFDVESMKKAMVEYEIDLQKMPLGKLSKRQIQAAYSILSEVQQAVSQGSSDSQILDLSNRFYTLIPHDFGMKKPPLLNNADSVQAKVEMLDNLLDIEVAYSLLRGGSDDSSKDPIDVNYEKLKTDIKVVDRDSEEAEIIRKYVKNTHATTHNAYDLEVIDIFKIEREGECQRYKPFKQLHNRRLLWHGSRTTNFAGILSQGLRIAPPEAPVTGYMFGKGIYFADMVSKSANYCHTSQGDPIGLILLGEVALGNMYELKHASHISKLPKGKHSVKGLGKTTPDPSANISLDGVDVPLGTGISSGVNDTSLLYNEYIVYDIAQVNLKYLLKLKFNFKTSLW
Procedure, shortened: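 Human PARP1 with NAD and activated DNA, compounds at 10 μM final, 30 min at room temperature in dark. Resazurin/diaphorase cycling mix then added for 1 hr in dark before stop buffer; fluorescent homogeneous kit read-out.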

[3] = tested on: WI-38 cells; test: MMS resistance assay; type: cell-based, human; conditions: for fold induction at 10 µM: Homo sapiens, 12 h, normalized ATP measurement
Procedure, shortened: as §1

[4] = tested on: C. elegans; test: C. elegans lifespan assays (liquid and plate); type: in vivo, Caenorhabditis elegans; conditions: for ILS at 60 µM / ILS at 66 µM: Caenorhabditis elegans; for O = Life span- extending scores in worms: score scale 0 to 2, 4 to 6 independent trials; for M = Lifespan-extending scores in worms: summary score
[5] = tested on: phosphorylated γH2A.X and TP53BP1; test: DNA damage marker analysis (immuno-staining); conditions: for activity at 10 µM: Homo sapiens, WI-38, 24 h; for P = Potential DNA-damaging / R = Potential DNA damaging: human, 24 h
Procedure, shortened: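 WI-38 cells were cultured 24 h, then treated with compounds for 24 h; H2O2 (700 μM, 3 h) and doxorubicin (300 nM, 24 h) served as DNA-damage controls. After fixation, cells were immunostained for phospho-γH2A.X (Ser-139) and phospho-TP53BP1 (Ser-1778), counterstained with DAPI, and imaged by automated high-content microscopy.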

[6] = Exp. 1, WI-38 cells, read-out: Exp. 1, under Cd2Cl2 stress treatment, at 10 uM (fold change)
[7] = Exp. 2, WI-38 cells, read-out: Exp. 2, under Cd2Cl2 stress treatment, at 10 uM (fold change)
[8] = WI-38 cells, 10 μM, both stressors
[9] = score in summary of 38 core set hits
[10] = Exp. 1, WI-38 cells, read-out: Exp. 1, under MMS stress treatment, at 10 uM (fold change)
[11] = Exp. 2, WI-38 cells, read-out: Exp. 2, under MMS stress treatment, at 10 uM (fold change)
[12] = in liquid, wild type, with FuDR, 1.0 × 10^9 bacteria/ml, read-out: relative change of mean lifespan vs control, Trial 1
[13] = in liquid, wild type, with FuDR, 2.5 × 10^9 bacteria/ml, read-out: relative change of mean lifespan vs control, Trial 2
[14] = on plate, CF512 temperature-sensitive sterile animals, without FuDR, 2.0 × 10^10 bacteria/ml, read-out: relative change of mean lifespan vs control, Trial 3
[15] = Assay 2(z), 1.0 × 10^9 bacteria/ml, wild type + FuDR (2012 July), read-out: Lifespan assay in liquid
[16] = Assay 3(aa), 2.5 × 10^9 bacteria/ml, wild type + FuDR, read-out: Lifespan assay in liquid
[17] = Assay 4(ab), 2.0 × 10^10 bacteria/ml, CF512 worms, no FuDR, read-out: Lifespan assay on plates
[18] = read-out: Experiment 1, H2A.X-P DNA damage foci staining (no H2O2 stress treatment), at 10 uM
[19] = read-out: Experiment 2, H2A.X-P DNA damage foci staining (no H2O2 stress treatment), at 10 uM
[20] = read-out: Experiment 2, H2A.X-P DNA damage foci staining (under H2O2 stress treatment), at 10 uM
[21] = read-out: Experiment 2, TP53BP1-P DNA damage foci staining (no H2O2 stress treatment), at 10 uM
[22] = read-out: Experiment 2, TP53BP1-P DNA damage foci staining (under H2O2 stress treatment), at 10 uM

SMILES	fold induction at 10 µM [1, 6]	fold induction at 10 µM [1, 7]	A = Cadmium resistant [1, 9]	A = Cadmium resistant ([1]; summary score)	C = H2O2- & Cd-resistant ([1]; summary score)	L = PARP inhibition [2]	fold induction at 10 µM [3, 10]	fold induction at 10 µM [3, 11]	B = MMS resistant [3, 9]	B = MMS resistant ([3]; summary score)	D = Triple resistant ([3]; summary score)	ILS at 60 µM [4, 12]	ILS at 60 µM [4, 13]	ILS at 60 µM [4, 14]	ILS at 66 µM [4, 15]	ILS at 66 µM [4, 16]	ILS at 66 µM [4, 17]	O = Life span- extending scores in worms [4]	M = Lifespan-extending scores in worms [4]	activity at 10 µM [5, 18]	also measured
CCc1ccc(Oc2nc3ccccn3c(=O)c2/C=C(\C#N)C(=O)NC2CCCCC2)cc1 [Gr-5A]	4.12	2.4	1	0	0	0	0.83	1.49	0	0	0	25.8%	-1.4%	-8.3%	25.8%	-1.4%	-8.3%	0	0	105%	CdCl2-resistant [1]: YES; H2O2- & CdCl2-resistant [1]: YES; CdCl2-resistant ([1]; WI-38 cells, 10 μM): YES; H2O2- & CdCl2-resistant [1, 8]: YES; activity at 10 µM [5, 19]: 115%; activity at 10 µM [5, 20]: 127%; activity at 10 µM [5, 21]: 147%; activity at 10 µM [5, 22]: 548%; P = Potential DNA-damaging [5]: 0; R = Potential DNA damaging [5]: 0
Cc1ccc(NC(=O)c2ccc([N+](=O)[O-])o2)cc1C [Gr-1F]	6.65	4.8	1	1	1	0	0.74	2.07	0	1	2	22.3%	0.6%	11.3%	22.3%	0.6%	11.3%	1 (1 for lifespan extension observed in 2 trials)	1 (1 for lifespan extension observed in 2 trials)	219%	CdCl2-resistant [1]: YES; H2O2- & CdCl2-resistant [1]: YES; CdCl2-resistant ([1]; WI-38 cells, 10 μM): YES; H2O2- & CdCl2-resistant [1, 8]: YES; Assay 4: H2O2- & Cd-resistant [1]: YES; Assay 2: Cadmium-resistant [1]: YES; Assay 3: MMS-resistant ([3]; YES/NO, * indicates partial): YES; Assay 5: Triple resistant ([3]; YES/NO, H2O2, cadmium and MMS): YES; activity at 10 µM [5, 19]: 378%; activity at 10 µM [5, 20]: 127%; activity at 10 µM [5, 21]: 460%; activity at 10 µM [5, 22]: 558%; P = Potential DNA-damaging [5]: 1; R = Potential DNA damaging [5]: 1
CCCN1C/C(=C\c2ccc(F)cc2)C(=O)/C(=C/c2ccc(F)cc2)C1 [O15]	0.18	0.57	0	1	1	0	0.16	0.38	0	0	0	38%	6.6%	14.6%	38%	6.6%	14.6%	1 (1 for lifespan extension observed in 2 trials)	1 (1 for lifespan extension observed in 2 trials)	90%	Assay 4: H2O2- & Cd-resistant [1]: YES; Assay 2: Cadmium-resistant [1]: YES; activity at 10 µM [5, 19]: 184%; activity at 10 µM [5, 20]: 58.4%; activity at 10 µM [5, 21]: 48.3%; activity at 10 µM [5, 22]: 251%; P = Potential DNA-damaging [5]: 0; R = Potential DNA damaging [5]: 0
O=C1NCCCc2cc(Cl)sc21 [O1]	1.84	1.86	1	1	1	1	1.2	4.96	0	0	0	1.8%	-1.7%	22.1%	1.8%	-1.7%	22.1%	0	0	102%	CdCl2-resistant [1]: YES; H2O2- & CdCl2-resistant [1]: YES; CdCl2-resistant ([1]; WI-38 cells, 10 μM): YES; H2O2- & CdCl2-resistant [1, 8]: YES; Assay 4: H2O2- & Cd-resistant [1]: YES; Assay 2: Cadmium-resistant [1]: YES; Inhibition of PARP1 [2]: inhibitors of PARP1; ILS at 60 µM ([4]; on plate, CF512 temperature-sensitive sterile animals, without FuDR, 1.0 × 10^11 bacteria/ml, read-out: relative change of mean lifespan vs control, Trial 4): -2.2%; ILS at 66 µM ([4]; Assay 5(ac), 1.0 × 10^11 bacteria/ml, CF512 worms, no FuDR, read-out: Lifespan assay on plates): -2.2%; activity at 10 µM [5, 19]: 104%; activity at 10 µM [5, 20]: 216%; activity at 10 µM [5, 21]: 143%; activity at 10 µM [5, 22]: 336%; P = Potential DNA-damaging [5]: 0; R = Potential DNA damaging [5]: 0
CCCC(=O)Nc1ccc(-c2cn3cccc(C)c3n2)cc1 [O12]	1.36	1.59	1	0	0	0	0.78	2	0	0	0	36.8%	9.6%	6.6%	36.8%	9.6%	6.6%	2 (2 for observed in more than 2 trials)	2 (2 for observed in more than 2 trials)	106%	CdCl2-resistant [1]: YES; H2O2- & CdCl2-resistant [1]: YES; CdCl2-resistant ([1]; WI-38 cells, 10 μM): YES; H2O2- & CdCl2-resistant [1, 8]: YES; Assay 2: Cadmium-resistant [1]: NO *; Inhibition of PARP1 [2]: inhibitors of PARP1; Extension of C. elegans' lifespan (qualitative) ([4]; in at least 3 to 4 trials, group range ~10% to ~50%): could extend animal's lifespan; activity at 10 µM [5, 19]: 88%; activity at 10 µM [5, 20]: 113%; activity at 10 µM [5, 21]: 142%; activity at 10 µM [5, 22]: 523%; P = Potential DNA-damaging [5]: 0; R = Potential DNA damaging [5]: 0
O=C(Nc1nc(C23CC4CC(CC(C4)C2)C3)cs1)C(c1ccccc1)c1ccccc1 [O10]	2.73	2	1	1	1	0	1.08	4.08	0	0	0	5.9%	-6.2%	9.5%	5.9%	-6.2%	9.5%	0	0	102%	CdCl2-resistant [1]: YES; H2O2- & CdCl2-resistant [1]: YES; CdCl2-resistant ([1]; WI-38 cells, 10 μM): YES; H2O2- & CdCl2-resistant [1, 8]: YES; Assay 4: H2O2- & Cd-resistant [1]: YES; Assay 2: Cadmium-resistant [1]: YES; activity at 10 µM [5, 19]: 71.5%; activity at 10 µM [5, 20]: 153%; activity at 10 µM [5, 21]: 135%; activity at 10 µM [5, 22]: 498%; P = Potential DNA-damaging [5]: 0; R = Potential DNA damaging [5]: 0
